This note sets out measurements from publication PMC8892858 (ACS Omega, 2022).

As usually defined, the EC50 is the concentration at which the effect is half-maximal. What is called IC50 is the concentration that gives 50% inhibition.

“And” between values parts separate entries of the source, which are not always exact repeats. Identical values can stand only once. “Also recorded” adds a separate entry of the source. Counter-ions that a name gives are not always drawn. Like-named read-outs stand apart in the source and are kept apart here.

Data set [1] concerns rRVFVΔNSs::Katushka. Description: microbe, parasite or virus in culture. The class given is cell-based, Rift Valley fever virus. The following applies: for IC50: read-out: IC50, dose-response curves of inhibition of RVFV infection (Figure 5A).
The subject of data set [2] is A549 cells.
The nature of another data set: in vitro. The following applies: human.
Data set [3] concerns rRVFVΔNSs::Katushka. The data set is classed as cell-based, Rift Valley fever virus.
For data set [4], the system named is rRVFVΔNSs::Katushka. The data set is classed as cell-based, Rift Valley fever virus. The source holds these as a separate data set.
The test system of data set [5] is A549 cells. The class given is cell-based, Human.
[6] abbreviates: Rift Valley fever virus, A549, 16 h, read-out: EC50 value.
Where [7] appears, read: Rift Valley fever virus, A549, 16 h.

As for “1-(4-(Benzhydryloxy)butyl)-4-phenylpiperazine [Compound 16]”, in the data set on rRVFVΔNSs::Katushka [1], the EC50 value result was “reduced the antiviral activity significantly”. Besides, the EC50 in the data set on rRVFVΔNSs::Katushka [1] (read-out: EC50 value) is more than 100 µM. Further, the CC50 in the data set on A549 cells [2] was more than 300 µM.
The molecule `NCCCNCCOc1ccc(-c2ccccc2)cc1` [Compound 1, N1-(2-(Biphenyl-4-yloxy)ethyl)propane-1,3-diamine·2HCl] had a Selectivity index in the data set on rRVFVΔNSs::Katushka [1] of 7.1. Moreover, the EC50 in the data set on rRVFVΔNSs::Katushka [1] (setting [6]) was 12 ± 1.3 µM. The CC50 in “in vitro” was determined as 86 ± 9 µM.
Consider `c1ccc(-c2ccc(OCCN3CCCCC3)cc2)cc1` [Compound 4d, 1-(2-(Biphenyl-4-yloxy)ethyl)piperidine], for which the EC50 with rRVFVΔNSs::Katushka [1] (setting [6]) was more than 100 µM. The molecule also returned a CC50 in “in vitro” of more than 300 µM.
Consider `c1ccc(-c2ccc(OCCN3CCOCC3)cc2)cc1` [Compound 4e, 4-(2-(Biphenyl-4-yloxy)ethyl)morpholine], for which the EC50 in the data set with rRVFVΔNSs::Katushka [1] (setting [6]) is more than 100 µM. The molecule further displayed a CC50 in the data set “in vitro” of more than 300 µM.
For the molecule `NCCCCCCOc1ccc(-c2ccccc2)cc1` [Compound 5a, 6-(Biphenyl-4-yloxy)hexan-1-amine·HCl], the Selectivity index with rRVFVΔNSs::Katushka [1] came to 3.6. Also, in the data set with rRVFVΔNSs::Katushka [1] (setting [6]), the EC50 worked out at 12.1 ± 2.1 µM. This molecule gave a CC50 in “in vitro” of 44.6 ± 0.3 µM.
For `NCCOc1ccc(-c2ccccc2)cc1` [Compound 5b, 2-(Biphenyl-4-yloxy)ethanamine·HCl], in that order: 8.1, 37.3 ± 0.5 µM and more than 300 µM.
The matching figures for `NCCCOc1ccc(-c2ccccc2)cc1` [Compound 5c, 3-(Biphenyl-4-yloxy)propan-1-amine]: 3.8, 37.8 ± 6.7 µM and 147 ± 4 µM.
The matching figures for `c1ccc(-c2ccc(OCCN3CCNCC3)cc2)cc1` [Compound 5f, 1-(2-(Biphenyl-4-yloxy)ethyl)piperazine]: 4.2, 38.7 ± 11.6 µM and 165 ± 22.9 µM.
In turn, `c1ccc(-c2ccc(OCCCN3CCNCC3)cc2)cc1` [Compound 5g, 1-(3-(Biphenyl-4-yloxy)propyl)piperazine] came in with a Selectivity index in the data set on rRVFVΔNSs::Katushka [1] of less than 2. For the same molecule, in the data set with rRVFVΔNSs::Katushka [1] (setting [6]), the EC50 was more than 100 µM. The same molecule gave a CC50 in “in vitro” of 203 ± 53.5 µM.
The molecule `CN1CCN(CCCCOc2ccc(-c3ccccc3)cc2)CC1` [Compound 8c, 1-(4-(Biphenyl-4-yloxy)butyl)-4-methylpiperazine] showed a Selectivity index with rRVFVΔNSs::Katushka [1] of 2.2. Further, in the data set on rRVFVΔNSs::Katushka [1] (setting [6]), the half-maximal effective concentration (EC50) was 61.7 ± 17.6 µM. In addition, the “inhibition of RVFV RNA expression (qRT-PCR)” value with rRVFVΔNSs::Katushka [3] is on record as “unable to inhibit the viral RNA expressions”. Also, the CC50 in “in vitro” is 136.2 ± 1.2 µM.
In the case of `c1ccc(-c2ccc(OCCCCN3CCNCC3)cc2)cc1` [Compound 9a, 1-(4-(Biphenyl-4-yloxy)butyl)piperazine], in the data set on rRVFVΔNSs::Katushka [1], the Selectivity index was determined as 5.8. For the same molecule, in the data set on rRVFVΔNSs::Katushka [1] (setting [6]), the EC50 turned out to be 12.8 ± 0.2 µM. This molecule came in with a CC50 in “in vitro” of 74.8 ± 1.2 µM.
With `c1ccc(-c2ccc(OCCCCCN3CCNCC3)cc2)cc1` [Compound 9b, 1-(5-(Biphenyl-4-yloxy)pentyl)piperazine], the concentration for a half-maximal effect (EC50) in the data set on rRVFVΔNSs::Katushka [1] (setting [6]) was found to be 11.7 ± 1.8 µM. For the same molecule, the CC50 in “in vitro” is 44.2 ± 16.6 µM.
Take `c1ccc(-c2ccc(OCCCCN3CCN(c4ccccc4)CC3)cc2)cc1` [Compound 11, 1-(4-(Biphenyl-4-yloxy)butyl)-4-phenylpiperazine]: the EC50 value entry in the data set on rRVFVΔNSs::Katushka [1] is recorded as “the antiviral activity was completely eliminated; also recorded: ND (no inhibition)”. Moreover, the “inhibition of RVFV RNA expression (qRT-PCR)” value in the data set with rRVFVΔNSs::Katushka [3] is on record as “did not show any inhibition”. The molecule also had a CC50 in “in vitro” of more than 300 µM.
As for `c1ccc(-c2cccc(OCCCCN3CCNCC3)c2)cc1` [Compound 13a, 1-(4-(Biphenyl-3-yloxy)butyl)piperazine·2HCl], the Selectivity index with rRVFVΔNSs::Katushka [1] was 10 and 10.4. Moreover, the EC50 in the data set with rRVFVΔNSs::Katushka [1] (setting [6]) was determined as 13.8 ± 5.3 µM. The IC50 in the data set with rRVFVΔNSs::Katushka [1] (setting [7]) stood at 13.8 µM. Moreover, the “antiviral potency by time of addition” value in the data set on rRVFVΔNSs::Katushka [4] was “active at early stages of the viral replication cycle, most likely during or just after virus entry; also recorded: progressively lost its potency when added at late stages of the infection cycle”. In addition, the “DiBAC4(3) fluorescence intensity (membrane potential)” value in the data set with A549 cells [5] is “increased DiBAC4(3) fluorescence intensity (depolarization)”. In “in vitro”, this molecule came in with a CC50 of 145 ± 5.5 µM.
In the case of `c1ccc(-c2ccccc2OCCCCN2CCNCC2)cc1` [Compound 13b, 1-(4-(Biphenyl-2-yloxy)butyl)piperazine·2HCl], the Selectivity index in the data set on rRVFVΔNSs::Katushka [1] was more than 4.7. In addition, the EC50 with rRVFVΔNSs::Katushka [1] (setting [6]) is 63.5 ± 11.1 µM. This molecule also came in with a CC50 in the data set “in vitro” of more than 300 µM.
The matching figures for `c1ccc(Cc2ccc(OCCCCN3CCNCC3)cc2)cc1` [Compound 13c, 1-(4-(4-Benzylphenoxy)butyl)piperazine·2HCl]: 9.1, 15.4 ± 4.7 µM and 140.3 ± 0.8 µM.
For `c1ccc(Cc2cccc(OCCCCN3CCNCC3)c2)cc1` [Compound 13d, 1-(4-(3-Benzylphenoxy)butyl)piperazine·2HCl], in that order: 5.8, 22.9 ± 5.2 µM and 134.2 ± 0.9 µM.
For `c1ccc(Cc2ccccc2OCCCCN2CCNCC2)cc1` [Compound 13e, 1-(4-(2-Benzylphenoxy)butyl)piperazine·2HCl], in that order: 4.7, 31.2 ± 15.8 µM and 148.4 ± 1.3 µM.
As for `c1ccc(OCCCCN2CCNCC2)cc1` [Compound 13f, 1-(4-Phenoxybutyl)piperazine·2HCl], the EC50 value entry with rRVFVΔNSs::Katushka [1] is “completely removed the antiviral activity; also recorded: ND (no inhibition)”. The molecule further showed a CC50 in the data set “in vitro” of more than 300 µM.
Take `CC(=O)c1cccc(-c2ccc(OCCCCN3CCNCC3)cc2)c1` [Compound 13g, 1-(4′-(4-(Piperazin-1-yl)butoxy)biphenyl-3-yl)ethanone·2HCl]: the half-maximal effective concentration (EC50) with rRVFVΔNSs::Katushka [1] (setting [6]) was 41.9 ± 27.3 µM. In “in vitro”, this molecule showed a CC50 of more than 300 µM.
With `CN(C)c1cccc(-c2ccc(OCCCCN3CCNCC3)cc2)c1` [Compound 13h, N,N-Dimethyl-4′-(4-(piperazin-1-yl)butoxy)biphenyl-3-amine·3HCl], the Selectivity index in the data set with rRVFVΔNSs::Katushka [1] turned out to be 5.3. Moreover, in the data set with rRVFVΔNSs::Katushka [1] (setting [6]), the EC50 worked out at 15.5 ± 4.7 µM. In addition, in the data set with A549 cells [2], the CC50 value entry is recorded as “high toxicity”. The molecule further yielded a CC50 in the data set “in vitro” of 82.5 ± 15.2 µM.
As for `CC(C)c1ccc(-c2ccc(OCCCCN3CCNCC3)cc2)cc1` [Compound 13i, 1-(4-(4′-Isopropylbiphenyl-4-yloxy)butyl)piperazine·2HCl], the Selectivity index in the data set on rRVFVΔNSs::Katushka [1] worked out at 5.1. In addition, in the data set on rRVFVΔNSs::Katushka [1] (setting [6]), the EC50 was 4.6 ± 0.3 µM. In “in vitro”, this molecule displayed a CC50 of 23.5 ± 0.1 µM.
As for `CC(C)c1cccc(-c2ccc(OCCCCN3CCNCC3)cc2)c1` [Compound 13j, 1-(4-(3′-Isopropylbiphenyl-4-yloxy)butyl)piperazine·2HCl], the Selectivity index in the data set with rRVFVΔNSs::Katushka [1] came out at 5.4. Also, the EC50 with rRVFVΔNSs::Katushka [1] (setting [6]) came to 4.7 ± 0.7 µM. Further, in the data set “in vitro”, the CC50 was 25.5 ± 8.9 µM.
The matching figures for `c1cc(C2CCCCC2)ccc1OCCCCN1CCNCC1` [Compound 13l, 1-(4-(4-Cyclohexylphenoxy)butyl)piperazine·2HCl]: 5.6, 8.8 ± 0.5 µM and 49.9 ± 10.1 µM.
In turn, `c1cc(C23CC4CC(CC(C4)C2)C3)ccc1OCCCCN1CCNCC1` [Compound 13m, 1-(4-(4-Adamantylphenoxy)butyl)piperazine·2HCl] showed a Selectivity index with rRVFVΔNSs::Katushka [1] of 2.4. In addition, the EC50 with rRVFVΔNSs::Katushka [1] (setting [6]) was 5.4 ± 1.2 µM. The CC50 value entry in the data set on A549 cells [2] is listed as “Extreme toxicity”. Moreover, the CC50 in the data set “in vitro” amounted to 13.1 µM.
In the case of `C=C[C@H]1C[N@@]2CC[C@H]1C[C@@H]2[C@@H](O)c1ccnc2ccc(OC)cc12` [quinidine, reference compound], the EC50 in the data set with rRVFVΔNSs::Katushka [1] (Rift Valley fever virus, A549, 16 h, read-out: EC50 value, inhibition of RVFV infection (dose-response before membrane potential assay)) was 146 µM. Further, the IC50 in the data set with rRVFVΔNSs::Katushka [1] (setting [7]) worked out at 164 µM. Moreover, the “DiBAC4(3) fluorescence intensity (membrane potential)” value in the data set with A549 cells [5] is reported as “increased DiBAC4(3) fluorescence intensity (depolarization)”.
